The text below walks through data of patent EP0731697B1, “SSI TYRPHOSTINS AND PHARMACEUTICAL COMPOSITIONS” (priority 1993, dated 1995).

Like-named read-outs stand apart in the source and are kept apart here.

One data set addresses EGF receptor (Homo sapiens, UniProt P00533). The conditions noted are these: even at concentrations above 100 uM; cited from earlier work.
A further data set deals with PDGFR. To be noted: even at concentrations above 100 uM; cited from earlier work.
Data set [1] relates to murine peritoneal macrophages. The data set is described as follows: NO2- production by periodate-activated murine peritoneal macrophages. Type of data set: cell-based. On the procedure:
Nitrite (NO2-) levels were determined in supernatants at the time indicated, as described herein. (Table 5) Values are expressed as means of triplicate cultures. […] Two additional experiments yielded similar results.
NO2- the product of NO oxidation is used to determine NO produced. Nitrite concentration in supernatants of macrophages was measured by a microplate assay method. 100 ul aliquots of supernatants were incubated with an equal volume of Griess reagent (1% sulfanilamide/O.1% naphthylethylene diamine dihydrochloride/2.5% H3PO4) at room temperature for 10 min. The absorbance at 550nm was determined in a microplate reader. Sodium nitrite was used as a standard.
Mice were injected i.p. with 1 ml sodium periodate (5mM). Three to 4 days later, macrophages were washed from the peritoneal cavity with PBS. After centrifugation at 170g for 10 min at […], the cell pellet was resuspended in RPMI 1640 containing 10% heat-inactivated new born calf serum. Adherent macrophage monolayers were obtained by plating the cells in 96-well plastic trays at 4x10^5 cells/well for 2 hr at 37°C in 5% CO2/air. Nonadherent cells were removed by suction and complete medium was added. […]

The next data set addresses Her-2/neu receptor (Homo sapiens, UniProt P04626). The conditions noted are these: even at concentrations above 100 uM; cited from earlier work.
The subject of data set [2] is Murine fibroblastic cells (A9). To be noted: for Protection Against TNF-α-Induced Cytotoxicity (cell viability): 1440 min.
Method: Tyrphostins at different concentration were added 2 hr prior to TNF. After 24 hrs cells viability was determined by vital staining using neutral red.
Recombinant human TNFα is added to a mouse fibroblastic cell line (A9), cultured in the presence of cyclohexamine and cell viability is monitored after 20 hours. […] The percentage of live cells was measured from 2 hours prior to administration until 4 hours after administration for a control and for TNF at concentrations of 0.2 ng/ml, 0.05 ng/ml, and 1.0 ng/ml.
In data set [3] the test system is TNF-α. Nature of the data set: LPS-induced production of TNF-α by activated murine peritoneal macrophages in vitro.
Method: The amount of TNF-α was quantitated by assessing the extent of killing of the TNF-α sensitive cell line (A9) essentially as described by Ruff and Gilford, G. E. J. Immunol. […] Briefly, mouse A9 fibroblasts were plated in 96-well flat-bottom micro-titer plates at 30,000 cells /0.1 ml to establish a dense monolayer. After incubation for 24 hr at 37 C in a humidified 5% CO2 atmosphere, cycloheximide was added to a final concentration of 50 ug/ml and 100 ul of serially diluted test samples were added to the wells. After incubation for additional 18 hr the supernatants were carefully aspirated, the monolayer were washed twice with PBS and 200 ul of neutral red solution (0.02%) was added. After incubation for 2 hr, cells were washed and the dye that had been absorbed by the live cells was extracted using 200 ul of 50% ethanol. The concentration of the dye was determined by an ELISA autoreader using a 550 nm filter. Murine TNF-α ELISA kit from ENDOGEN Inc., was used for quancitation of murine TNF-α.
Mice were injected i.p. with 1 ml sodium periodate (5mM). Three to 4 days later, macrophages were washed from the peritoneal cavity with PBS. After centrifugation at 170g for 10 min at 40° C, the cell pellet was resuspended in RPMI 1640 containing 10% heat-inactivated new born calf serum. Adherent macrophage monolayers were obtained by plating the cells in 96-well plastic trays at 4x10^5 cells/well for 2 hr at 37°C in 5% CO2/air. Nonadherent cells were removed by suction and complete medium was added.
In data set [4] the test system is TNF-α. The data set is described as follows: LPS induced increase in serum TNF-α levels in mice. Type of data set: in vivo. An excerpt:
TNF-α was implicated to mediate many of the toxic effect of LPS. For example, the effect of SSI 3 on serum TNF-α levels in mice which had been treated with LPS was investigated. LPS induced a rapid increase in serum TNF-α levels. […] […] The bioassay gave somewhat higher levels compared to the ELISA. This finding may indicate that the serum from LPS-treated mice contained in addition to TNF-α, other cytotoxic factors.
The amount of TNF-α was quantitated by assessing the extent of killing of the TNF-α sensitive cell line (A9) essentially as described by Ruff and Gilford, G. E. J. Immunol. 125, 1671-1677, (1980). Briefly, mouse A9 fibroblasts were plated in 96-well flat-bottom micro-titer plates at 30,000 cells /0.1 ml to establish a dense monolayer. After incubation for 24 hr at 37 C in a humidified 5% CO2 atmosphere, cycloheximide was added to a final concentration of 50 ug/ml and 100 ul of serially diluted test samples were added to the wells. After incubation for additional 18 hr the supernatants were carefully aspirated, the monolayer were washed twice with PBS and 200 ul of neutral red solution (0.02%) was added. After incubation for 2 hr, cells were washed and the dye that had been absorbed by the live cells was extracted using 200 ul of 50% ethanol. The concentration of the dye was determined by an ELISA autoreader using a 550 nm filter. Murine TNF-α ELISA kit from ENDOGEN Inc., was used for quancitation of murine TNF-α.

Another data set has as its system mice. The data set is described as follows: LPS-induced lethal toxicity in mice. To be noted: for mice alive after 7 days: 100 ug/mouse 2 hours before or after LPS.
Data set [5] in a line: Solubility in aqueous solution. Type of data set: physicochemical.
Setting [6] is: LPS 200 µg/mouse, AG 300 µg/mouse 2 hrs prior to LPS, 1hr, mean (two single values).
Setting [7] is: LPS 200 µg/mouse, AG 300 µg/mouse 2 hrs prior to LPS, 2hr, mean (two single values).
[8] abbreviates: no LPS (-), AG 300 µg/mouse, 1hr.

EGF receptor, sequence (P00533 25-1210): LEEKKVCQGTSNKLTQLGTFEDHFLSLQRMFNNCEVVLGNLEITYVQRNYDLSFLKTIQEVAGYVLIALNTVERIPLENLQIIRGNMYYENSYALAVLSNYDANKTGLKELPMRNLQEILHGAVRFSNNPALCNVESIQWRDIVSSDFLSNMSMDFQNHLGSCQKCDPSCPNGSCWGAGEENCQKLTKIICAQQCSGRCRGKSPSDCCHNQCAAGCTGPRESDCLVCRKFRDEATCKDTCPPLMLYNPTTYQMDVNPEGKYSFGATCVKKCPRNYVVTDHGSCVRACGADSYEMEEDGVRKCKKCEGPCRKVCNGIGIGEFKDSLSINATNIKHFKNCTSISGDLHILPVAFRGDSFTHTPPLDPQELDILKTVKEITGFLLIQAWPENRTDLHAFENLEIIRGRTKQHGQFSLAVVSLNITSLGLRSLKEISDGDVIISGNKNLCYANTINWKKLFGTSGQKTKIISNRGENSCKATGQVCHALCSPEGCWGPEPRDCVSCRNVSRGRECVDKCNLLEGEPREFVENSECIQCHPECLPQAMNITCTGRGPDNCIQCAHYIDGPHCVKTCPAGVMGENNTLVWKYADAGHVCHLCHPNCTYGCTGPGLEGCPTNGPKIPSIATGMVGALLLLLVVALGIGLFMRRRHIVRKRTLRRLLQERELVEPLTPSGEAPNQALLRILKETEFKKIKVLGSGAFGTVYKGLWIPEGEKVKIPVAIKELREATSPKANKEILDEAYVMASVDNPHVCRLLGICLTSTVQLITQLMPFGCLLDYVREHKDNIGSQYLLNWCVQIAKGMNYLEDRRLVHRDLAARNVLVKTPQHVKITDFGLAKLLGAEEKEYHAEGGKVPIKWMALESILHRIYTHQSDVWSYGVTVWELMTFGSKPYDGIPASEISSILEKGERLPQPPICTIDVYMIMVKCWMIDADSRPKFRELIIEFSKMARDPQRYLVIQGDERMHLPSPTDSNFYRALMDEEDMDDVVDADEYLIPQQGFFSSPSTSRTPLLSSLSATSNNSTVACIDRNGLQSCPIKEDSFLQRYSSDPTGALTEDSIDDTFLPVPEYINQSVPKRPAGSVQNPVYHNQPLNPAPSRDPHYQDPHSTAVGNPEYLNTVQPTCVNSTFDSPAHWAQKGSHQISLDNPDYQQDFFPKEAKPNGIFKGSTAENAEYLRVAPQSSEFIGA
Her-2/neu receptor, sequence (P04626 23-1255): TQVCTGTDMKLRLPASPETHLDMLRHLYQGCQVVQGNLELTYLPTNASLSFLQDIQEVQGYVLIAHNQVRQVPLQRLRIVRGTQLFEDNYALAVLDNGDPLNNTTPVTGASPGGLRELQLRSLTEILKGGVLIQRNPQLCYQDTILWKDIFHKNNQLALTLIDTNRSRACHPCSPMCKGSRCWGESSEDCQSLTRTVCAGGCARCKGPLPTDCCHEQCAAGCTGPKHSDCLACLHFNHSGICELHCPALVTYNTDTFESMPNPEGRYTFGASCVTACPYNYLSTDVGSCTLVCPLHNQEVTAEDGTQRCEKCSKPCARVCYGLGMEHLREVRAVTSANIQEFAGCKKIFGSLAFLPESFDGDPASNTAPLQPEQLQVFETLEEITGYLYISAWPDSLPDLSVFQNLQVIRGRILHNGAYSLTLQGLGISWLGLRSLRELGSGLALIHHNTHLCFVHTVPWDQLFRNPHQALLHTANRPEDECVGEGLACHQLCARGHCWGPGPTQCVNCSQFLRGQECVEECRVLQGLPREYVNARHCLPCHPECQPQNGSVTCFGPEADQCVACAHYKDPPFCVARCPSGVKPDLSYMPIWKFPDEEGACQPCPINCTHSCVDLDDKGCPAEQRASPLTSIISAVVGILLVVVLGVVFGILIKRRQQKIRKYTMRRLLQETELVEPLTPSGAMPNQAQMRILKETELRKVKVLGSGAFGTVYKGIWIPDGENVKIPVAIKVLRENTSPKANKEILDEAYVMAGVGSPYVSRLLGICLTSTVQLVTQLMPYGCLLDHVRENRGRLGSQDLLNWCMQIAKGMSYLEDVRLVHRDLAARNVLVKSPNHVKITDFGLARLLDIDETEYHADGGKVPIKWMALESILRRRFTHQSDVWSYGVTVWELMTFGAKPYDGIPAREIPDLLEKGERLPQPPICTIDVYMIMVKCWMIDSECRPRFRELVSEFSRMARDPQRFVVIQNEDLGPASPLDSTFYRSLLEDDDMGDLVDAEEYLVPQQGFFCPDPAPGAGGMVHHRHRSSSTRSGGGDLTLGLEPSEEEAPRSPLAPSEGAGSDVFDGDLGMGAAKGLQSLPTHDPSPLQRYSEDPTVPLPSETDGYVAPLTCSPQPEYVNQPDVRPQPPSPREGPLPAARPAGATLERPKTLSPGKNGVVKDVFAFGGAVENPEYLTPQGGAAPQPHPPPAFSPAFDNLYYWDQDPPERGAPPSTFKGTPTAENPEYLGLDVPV

Consider `N#CC(C#N)=Cc1cc(O)c(O)c([N+](=O)[O-])c1` [SSI 8], for which, at EGF receptor, the “effect on EGF receptor” value was “no effect”. Also, the “effect on PDGFR” value with PDGFR is on record as “no effect”. The “NO2- production in unstimulated and LPS-stimulated periodate-activated murine macrophages” value in data set [1] (LPS (10 mg/ml)) was “effectively inhibited”. Further, the “NO2- Production by Macrophages” value is given as 42,7 µg in [1] (SSI 20 uM, LPS 10 ug, 1 DAY); 80,6 µg in data set [1] (SSI 20 uM, LPS 10 ug, 2 DAY); 83,4 µg in [1] (SSI 20 uM, LPS 10 ug, 3 DAY); 10,4 µg in data set [1] (SSI 20 uM, no LPS, 1 DAY); 13,5 µg in data set [1] (SSI 20 uM, no LPS, 2 DAY); 11,8 µg in [1] (SSI 20 uM, no LPS, 3 DAY). The “NO2- Production by Macrophages” value is 6,4 µg in [1] (SSI 50uM, LPS 10 ug, 1 DAY); 11,5 µg in data set [1] (SSI 50uM, LPS 10 ug, 2 DAY); 22,4 µg in data set [1] (SSI 50uM, LPS 10 ug, 3 DAY); 5,8 µg in [1] (SSI 50 uM, no LPS, 1 DAY); 8,1 µg in data set [1] (SSI 50 uM, no LPS, 2 DAY); 5,9 µg in [1] (SSI 50 uM, no LPS, 3 DAY). Also, on Her-2/neu receptor, the “effect on Her-2/neu receptor” value is “no effect”. Moreover, in data set [2], the “blocking TNF-α induced cytotoxicity in vitro” value is “active”. The “Protection Against TNF-α-Induced Cytotoxicity (cell viability)” value was 100 in data set [2] (TNF-α 0 ng/ml); 67±4.1 in [2] (TNF-α 0.2 ng/ml, none 41±2.3); 46+2.8 in data set [2] (TNF-α 0.5 ng/ml, none 20±1.7). Moreover, the TNF-α in the data set with TNF-α [3] (LPS +) and with TNF-α [3] (LPS -) was under 5 pg/mL each time. In addition, in the data set on TNF-α [3] (among the tyrphostins tested), the “ability to inhibit LPS-induced production of TNF-α by activated murine peritoneal macrophages in vitro” value is listed as “most potent”.

Take `N#CC(=Cc1cc(O)c(O)c([N+](=O)[O-])c1)C(=O)O` [SSI 9]: the “NO2- Production by Macrophages” value was 71,3 µg in data set [1] (SSI 20 uM, LPS 10 ug, 1 DAY); 112,9 µg in data set [1] (SSI 20 uM, LPS 10 ug, 2 DAY); 136 µg in [1] (SSI 20 uM, LPS 10 ug, 3 DAY); 41,8 µg in [1] (SSI 20 uM, no LPS, 1 DAY); 57,2 µg in data set [1] (SSI 20 uM, no LPS, 2 DAY); 45,1 µg in data set [1] (SSI 20 uM, no LPS, 3 DAY). Also, the “NO2- Production by Macrophages” value in data set [1] (SSI 50 uM, no LPS, 1 DAY) worked out at 36 µg; in data set [1] (SSI 50 uM, no LPS, 2 DAY), 51 µg; in [1] (SSI 50 uM, no LPS, 3 DAY), 33 µg. Further, the “Serum TNF-α” value was 17.7 (17.3, 18.2) ng/ml in the data set with TNF-α [4] (setting [6]); 11.1 (10.5, 11.7) ng/ml in the data set on TNF-α [4] (setting [7]); 16.0 ng/mL in the data set with TNF-α [4] (setting [8]). The “blocking TNF-α induced cytotoxicity in vitro” value in data set [2] is “not”. Moreover, the TNF-α in the data set with TNF-α [3] (LPS +) was 17 pg/mL; in the data set with TNF-α [3] (LPS -), under 5 pg/mL.

With `N#CC(=Cc1cc(O)c(O)c([N+](=O)[O-])c1)C(=O)NCCCc1ccccc1` [SSI 10], the “NO2- Production by Macrophages” value is 42,3 µg in data set [1] (SSI 20 uM, LPS 10 ug, 1 DAY); 100,9 µg in data set [1] (SSI 20 uM, LPS 10 ug, 2 DAY); 124,9 µg in data set [1] (SSI 20 uM, LPS 10 ug, 3 DAY); 23,4 µg in data set [1] (SSI 20 uM, no LPS, 1 DAY); 27,9 µg in [1] (SSI 20 uM, no LPS, 2 DAY); 44,6 µg in data set [1] (SSI 20 uM, no LPS, 3 DAY). The “NO2- Production by Macrophages” value in [1] (SSI 50 uM, no LPS, 1 DAY) was 23,3 µg; in data set [1] (SSI 50 uM, no LPS, 2 DAY), 12,3 µg; in data set [1] (SSI 50 uM, no LPS, 3 DAY), 13,2 µg. In addition, the “Serum TNF-α” value in the data set on TNF-α [4] (setting [6]) is 18.7 (23.2, 19.2) ng/ml; in the data set with TNF-α [4] (setting [7]), 12.9 (13.6, 12.2) ng/ml; with TNF-α [4] (setting [8]), 14.0 ng/mL.

For the compound `N#CC(=Cc1ccc(O)c(O)c1)C(=O)NCc1ccccc1` [SSI 16], the “LPS induced NO production” value in [1] (50 um, added 2 hours prior to LPS, 24 hours) was “markedly inhibit”. For the same compound, the NO production in data set [1] (50 um, from an initial level of 70 uM (no LPS), 24 hours) was about 30 µM; in [1] (50 um, from an initial level of 40 (10 ug/ml of LPS), 24 hours), “approximately 20 uM”. The “LPS induced toxicity in vivo” value in the data set on mice (400 ug/mouse over 7 days with 10 mice) is “does not prevent”. Besides, in data set [2], the “more active in inhibiting TNF-α cytotoxicity in vitro” value is “two to three fold”. Moreover, the “TNF toxicity (percentage of live cells)” value in data set [2] (SSI 3 50 uM, SSI 16 2 uM, SSI 17 2 and 10 uM, A9 cells with cyclohexamine, viability after 20 hours, TNF 0.2, 0.05 and 1.0 ng/ml) is recorded as “prevent TNF toxicity to different degrees”. For the same compound, the “Protection Against TNF-α-Induced Cytotoxicity (cell viability)” value came to 100 in [2] (TNF-α 0 ng/ml); 41±4.3 in data set [2] (TNF-α 0.2 ng/ml, none 41±2.3); 23±2.0 in data set [2] (TNF-α 0.5 ng/ml, none 20±1.7).

`N#CC(=Cc1ccc([N+](=O)[O-])c(O)c1)C(=O)NCCCc1ccccc1` [SSI 19]: in [2] (2 and 10 uM), the “preventing TNF toxicity” value was “effective”. Besides, in data set [2] (50 um, by itself), the “toxicity to the indicator A9 cells” value is on record as “toxic”. The “Protection Against TNF-α-Induced Cytotoxicity (cell viability)” value turned out to be 100 in data set [2] (TNF-α 0 ng/ml); 42±3.7 in data set [2] (TNF-α 0.2 ng/ml, none 41±2.3); 18±2.6 in [2] (TNF-α 0.5 ng/ml, none 20±1.7).

On to `N#CC(=Cc1ccc([N+](=O)[O-])c(O)c1)C(=O)NCCCCc1ccccc1` [SSI 23], for which the “behaviour after dilution of the stock (made in DMSO) in PBS” value in data set [5] is on record as “rapidly precipitates”. Also, the “solubility in aqueous solution” value in data set [5] is given as “very soluble”. The “mice alive after 7 days” value with mice (2.2 mg LPS/mouse, LPS alone 1 alive) is given as 4 out of 5 mice; in the data set on mice (2.5 mg LPS/mouse, LPS alone 0 alive after 1 day), 2 out of 5 mice. Also, the induced lethality entry in the data set on mice (even when administered late after LPS) was “prevent”. Also, in data set [2] (50um, added at the same time, 1 hour prior to, or late (2hr) after the addition of TNF), the “preventing TNF toxicity in vitro” value is reported as “effective”.
